The term EC50 denotes the midpoint of the concentration-response curve.

One experiment relates to IL23p19. Kind of experiment: LPS Induced IL23p19 in THP-1 Cells (with IFNγ Primed) Assay. In kind it is cell-based. The settings on record: Homo sapiens, IFNγ primed (50 ng/mL), LPS 1 ug/mL, 18 hours, 10 pt, read-out: IL23-p19 ELISA, THP1-IFNy, LPS, 10 pt EC50. Summed up: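 IFNγ-primed (50 ng/mL, ~18 h) THP-1 cells in RPMI/10% FBS pre-incubated 1 h with serially diluted compound, then stimulated 18 h at 37 °C with 1 ug/mL LPS. Supernatant IL-23p19 quantified by chemiluminescent sandwich ELISA (anti-IL-12 p40/p70 detection); EC50 from curve fit. Toxicity checked by Cell Titer Glo.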

A further experiment deals with IL23-p19. Kind of experiment: Compound screening using DC cells: LPS-induced IL-23 (p19/p40) ELISA in IFNγ-primed dendritic cells differentiated from human PBMC. In kind it is cell-based. To be noted: Dendritic cell, human PBMC-derived dendritic cells, LPS 1 μg/ml, 18 hours, 10 pt. Put shortly: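 Dendritic cells were derived from human PBMC over 7 days with GMCSF (100 ng/ml) and IL4 (20 ng/ml), then primed 24 h with 50 ng/ml IFNγ. After 1 h pre-incubation with compound, cells were stimulated with LPS (1 μg/ml final) for 18 h at 37 °C. IL-23 in supernatant measured by p19-capture/p40-detection chemiluminescent ELISA; cytotoxicity checked by CellTiter-Glo.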

`O=C(Nc1cc2oc(N3CCOCC3)nc2cc1N1CCCC(F)(F)C1)c1csc(-c2cn[nH]c2)n1` [Compound I-44, N-(5-(3,3-difluoropiperidin-1-yl)-2-morpholinobenzo[d]oxazol-6-yl)-2-(1H-pyrazol-4-yl)thiazole-4-carboxamide]: the results for the EC50 in the experiment with IL23p19 and in the experiment on IL23-p19 were 88.7 nM and 101 nM, respectively.
In the case of `Cc1cc(-c2nc(C(=O)Nc3cc4oc(N5CCOCC5)nc4cc3N3CCCC(F)C3)cs2)ccn1` (centres unmarked) [Compound I-41, N-(5-(3-fluoropiperidin-1-yl)-2-morpholinobenzo[d]oxazol-6-yl)-2-(2-methylpyridin-4-yl)thiazole-4-carboxamide], the figures for the concentration giving a half-maximal response (EC50) with IL23p19 and in the experiment on IL23-p19 were 147 nM and 2580 nM, respectively.
On the same counts, the results for `O=C(Nc1cc2oc(NCCN3CCOCC3)nc2cc1N1CCCCC1)c1csc(-c2cn[nH]c2)n1` [Compound I-52, N-(2-((2-morpholinoethyl)amino)-5-(piperidin-1-yl)benzo[d]oxazol-6-yl)-2-(1H-pyrazol-4-yl)thiazole-4-carboxamide] are 20 nM and 37.1 nM.
On the same counts, the results for `O=C(Nc1cc2sc(N3CCOCC3)nc2cc1N1CCCCC1)c1ccc(-c2cn[nH]c2)o1` [Compound I-7, N-(2-morpholino-5-(piperidin-1-yl)benzo[d]thiazol-6-yl)-5-(1H-pyrazol-4-yl)furan-2-carboxamide] are 26 nM and 13.6 nM.
On the same counts, the results for `O=C(Nc1cc2oc(N3CCOCC3)nc2cc1N1CCC(F)(F)CC1)c1csc(-c2cn[nH]c2)n1` [Compound I-29, N-(5-(4,4-difluoropiperidin-1-yl)-2-morpholinobenzo[d]oxazol-6-yl)-2-(1H-pyrazol-4-yl)thiazole-4-carboxamide] are 302 nM and 106 nM.
Turning to `COCCN(C)c1nc2cc(N3CCCCC3)c(NC(=O)c3ccc(-c4cn[nH]c4)o3)cc2o1` [Compound I-50, N-(2-((2-methoxyethyl)(methyl)amino)-5-(piperidin-1-yl)benzo[d]oxazol-6-yl)-5-(1H-pyrazol-4-yl)furan-2-carboxamide], the half-maximal effective concentration (EC50) in the experiment with IL23p19 came out at 133 nM; with IL23-p19 it was 75.7 nM.
On the same counts, the results for `Cc1cc(-c2ccc(C(=O)Nc3cc4oc(N5CCN(C)CC5)nc4cc3N3CCCCC3)o2)ccn1` [Compound I-18, N-(2-(4-methylpiperazin-1-yl)-5-(piperidin-1-yl)benzo[d]oxazol-6-yl)-5-(2-methylpyridin-4-yl)furan-2-carboxamide] are 7510 nM and 889 nM.

(Values after patent US10774076B2, “Benzazole compounds and methods for making and using the compounds” (Rigel Pharmaceuticals, Inc., priority 2015, dated 2020).)
